Source: the NIST ThermoML archive (doi:10.1016/j.jct.2018.03.017)
“And” between values parts separate entries of the source, which are not always exact repeats. Equal entries are not always repeated. ± gives the expanded uncertainty stated by the source.

Experiment: xn = mol fraction of the nth substance listed
Details: 96 kPa, Liquid, Pycnometric method

C1CCC2=NCCCN2CC1 [1,8-diaza-7-bicyclo[5.4.0]undecene] + OCC(O)CO
mass density (288.15 K, x1 = 0.0501): 1251.8 ± 8.6 kg/m3 | mass density (288.15 K, x1 = 0.0909): 1238.4 ± 8.6 kg/m3 | mass density (288.15 K, x1 = 0.1667): 1211.2 ± 8.6 kg/m3 | mass density (288.15 K, x1 = 0.2): 1200.6 ± 8.6 kg/m3 | mass density (288.15 K, x1 = 0.2153): 1195.3 ± 8.6 kg/m3 | mass density (288.15 K, x1 = 0.2306): 1190.3 ± 8.6 kg/m3 | mass density (288.15 K, x1 = 0.3059): 1167.2 ± 8.5 kg/m3 | mass density (288.15 K, x1 = 0.3333): 1159.4 ± 8.5 kg/m3 | mass density (288.15 K, x1 = 0.4011): 1141.5 ± 8.5 kg/m3 | mass density (288.15 K, x1 = 0.5): 1117.4 ± 8.5 kg/m3 | mass density (288.15 K, x1 = 0.5632): 1102.9 ± 8.5 kg/m3 | mass density (288.15 K, x1 = 0.625): 1089.8 ± 8.5 kg/m3 | mass density (288.15 K, x1 = 0.75): 1066.1 ± 9.6 kg/m3 and 1065.4 ± 8.5 kg/m3 | mass density (288.15 K, x1 = 0.8333): 1051.7 ± 8.5 kg/m3 | mass density (288.15 K, x1 = 1): 1020.6 ± 8.2 kg/m3 | mass density (293.15 K, x1 = 0.0926): 1236.7 ± 8.6 kg/m3 | mass density (293.15 K, x1 = 0.1902): 1197.8 ± 8.6 kg/m3 | mass density (293.15 K, x1 = 0.2998): 1161.7 ± 8.5 kg/m3 | mass density (293.15 K, x1 = 0.3996): 1133.2 ± 8.5 kg/m3 | mass density (293.15 K, x1 = 0.5032): 1108.7 ± 8.5 kg/m3 | mass density (293.15 K, x1 = 0.5995): 1088 ± 8.5 kg/m3 | mass density (293.15 K, x1 = 0.6992): 1069.6 ± 8.5 kg/m3 | mass density (293.15 K, x1 = 0.7998): 1052.3 ± 8.5 kg/m3 | mass density (293.15 K, x1 = 0.9001): 1030.8 ± 8.5 kg/m3 | mass density (293.15 K, x1 = 1): 1017.1 ± 8.2 kg/m3 | mass density (298.15 K, x1 = 0.0501): 1245.4 ± 8.6 kg/m3 | mass density (298.15 K, x1 = 0.0909): 1231.7 ± 8.6 kg/m3 | mass density (298.15 K, x1 = 0.1667): 1204.2 ± 8.6 kg/m3 | mass density (298.15 K, x1 = 0.2): 1192.3 ± 8.6 kg/m3 | mass density (298.15 K, x1 = 0.2153): 1187 ± 8.6 kg/m3 | mass density (298.15 K, x1 = 0.2306): 1181.8 ± 8.6 kg/m3 | mass density (298.15 K, x1 = 0.3059): 1158 ± 8.5 kg/m3 | mass density (298.15 K, x1 = 0.3333): 1149.8 ± 8.5 kg/m3 | mass density (298.15 K, x1 = 0.4011): 1131.6 ± 8.5 kg/m3 | mass density (298.15 K, x1 = 0.5): 1107.1 ± 9.6 kg/m3 and 1108.1 ± 8.5 kg/m3 | mass density (298.15 K, x1 = 0.5632): 1093.7 ± 8.5 kg/m3 | mass density (298.15 K, x1 = 0.625): 1081 ± 8.5 kg/m3 | mass density (298.15 K, x1 = 0.75): 1058.1 ± 8.5 kg/m3 | mass density (298.15 K, x1 = 0.8333): 1044.3 ± 8.5 kg/m3 | mass density (298.15 K, x1 = 1): 1014.1 ± 8.2 kg/m3 | mass density (303.15 K, x1 = 0.0926): 1229.7 ± 8.6 kg/m3 | mass density (303.15 K, x1 = 0.1902): 1191.9 ± 8.6 kg/m3 | mass density (303.15 K, x1 = 0.2998): 1156.4 ± 8.5 kg/m3 | mass density (303.15 K, x1 = 0.3996): 1128.3 ± 8.5 kg/m3 | mass density (303.15 K, x1 = 0.5032): 1102.3 ± 8.5 kg/m3 | mass density (303.15 K, x1 = 0.5995): 1081.9 ± 8.5 kg/m3 | mass density (303.15 K, x1 = 0.6992): 1064.2 ± 8.5 kg/m3 | mass density (303.15 K, x1 = 0.7998): 1045.7 ± 8.5 kg/m3 | mass density (303.15 K, x1 = 0.9001): 1028.9 ± 8.5 kg/m3 | mass density (303.15 K, x1 = 1): 1010.9 ± 8.2 kg/m3 | mass density (308.15 K, x1 = 0.0501): 1239 ± 8.6 kg/m3 | mass density (308.15 K, x1 = 0.0909): 1224.7 ± 8.6 kg/m3 | mass density (308.15 K, x1 = 0.1667): 1196.4 ± 8.6 kg/m3 | mass density (308.15 K, x1 = 0.2): 1184.9 ± 8.6 kg/m3 | mass density (308.15 K, x1 = 0.2153): 1179.6 ± 8.6 kg/m3 | mass density (308.15 K, x1 = 0.2306): 1174.6 ± 8.6 kg/m3 | mass density (308.15 K, x1 = 0.3059): 1150.5 ± 8.5 kg/m3 | mass density (308.15 K, x1 = 0.3333): 1142.5 ± 8.5 kg/m3 | mass density (308.15 K, x1 = 0.4011): 1124.1 ± 8.5 kg/m3 | mass density (308.15 K, x1 = 0.5): 1100.2 ± 8.5 kg/m3 | mass density (308.15 K, x1 = 0.5632): 1086.4 ± 8.5 kg/m3 | mass density (308.15 K, x1 = 0.625): 1073.9 ± 8.5 kg/m3 | mass density (308.15 K, x1 = 0.75): 1050.9 ± 8.5 kg/m3 | mass density (308.15 K, x1 = 0.8333): 1037 ± 8.5 kg/m3 | mass density (308.15 K, x1 = 1): 1007.4 ± 8.2 kg/m3 | mass density (313.15 K, x1 = 0.0926): 1222.9 ± 8.6 kg/m3 | mass density (313.15 K, x1 = 0.1902): 1184.5 ± 8.6 kg/m3 | mass density (313.15 K, x1 = 0.2998): 1149.2 ± 8.5 kg/m3 | mass density (313.15 K, x1 = 0.3996): 1121.2 ± 8.5 kg/m3 | mass density (313.15 K, x1 = 0.5032): 1095.3 ± 8.5 kg/m3 | mass density (313.15 K, x1 = 0.5995): 1075.9 ± 8.5 kg/m3 | mass density (313.15 K, x1 = 0.6992): 1056.8 ± 8.5 kg/m3 | mass density (313.15 K, x1 = 0.7998): 1038.7 ± 8.5 kg/m3 | mass density (313.15 K, x1 = 0.9001): 1021.2 ± 8.5 kg/m3 | mass density (313.15 K, x1 = 1): 1004.6 ± 8.2 kg/m3 | mass density (318.15 K, x1 = 0.0501): 1232.2 ± 8.6 kg/m3 | mass density (318.15 K, x1 = 0.0909): 1217.1 ± 8.6 kg/m3 | mass density (318.15 K, x1 = 0.1667): 1188.2 ± 8.6 kg/m3 | mass density (318.15 K, x1 = 0.2): 1176.9 ± 8.6 kg/m3 | mass density (318.15 K, x1 = 0.2153): 1171.5 ± 8.6 kg/m3 | mass density (318.15 K, x1 = 0.2306): 1166.7 ± 8.6 kg/m3 | mass density (318.15 K, x1 = 0.3059): 1142.9 ± 8.5 kg/m3 | mass density (318.15 K, x1 = 0.3333): 1134.9 ± 8.5 kg/m3 | mass density (318.15 K, x1 = 0.4011): 1117.3 ± 8.5 kg/m3 | mass density (318.15 K, x1 = 0.5): 1091.1 ± 9.6 kg/m3 and 1093.5 ± 8.5 kg/m3 | mass density (318.15 K, x1 = 0.5632): 1079.3 ± 8.5 kg/m3 | mass density (318.15 K, x1 = 0.625): 1066.7 ± 8.5 kg/m3 | mass density (318.15 K, x1 = 0.75): 1042.7 ± 8.5 kg/m3 | mass density (318.15 K, x1 = 0.8333): 1028.7 ± 8.5 kg/m3 | mass density (318.15 K, x1 = 1): 1000.8 ± 8.2 kg/m3 | mass density (323.15 K, x1 = 0.0926): 1216 ± 8.6 kg/m3 | mass density (323.15 K, x1 = 0.1902): 1177.6 ± 8.6 kg/m3 | mass density (323.15 K, x1 = 0.2998): 1142.5 ± 8.5 kg/m3 | mass density (323.15 K, x1 = 0.3996): 1114.6 ± 8.5 kg/m3 | mass density (323.15 K, x1 = 0.5032): 1087.4 ± 8.5 kg/m3 | mass density (323.15 K, x1 = 0.5995): 1068.3 ± 8.5 kg/m3 | mass density (323.15 K, x1 = 0.6992): 1049.7 ± 8.5 kg/m3 | mass density (323.15 K, x1 = 0.7998): 1031.5 ± 8.5 kg/m3 | mass density (323.15 K, x1 = 0.9001): 1013.9 ± 8.5 kg/m3 | mass density (323.15 K, x1 = 1): 998.4 ± 8.2 kg/m3 | mass density (328.15 K, x1 = 0.0501): 1224.9 ± 8.6 kg/m3 | mass density (328.15 K, x1 = 0.0909): 1208.3 ± 8.6 kg/m3 | mass density (328.15 K, x1 = 0.1667): 1180.2 ± 8.6 kg/m3 | mass density (328.15 K, x1 = 0.2): 1170.9 ± 9.6 kg/m3 and 1169.4 ± 8.6 kg/m3 | mass density (328.15 K, x1 = 0.2153): 1164.2 ± 8.6 kg/m3 | mass density (328.15 K, x1 = 0.2306): 1158.9 ± 8.5 kg/m3 | mass density (328.15 K, x1 = 0.3059): 1136 ± 8.5 kg/m3 | mass density (328.15 K, x1 = 0.3333): 1128 ± 8.5 kg/m3 | mass density (328.15 K, x1 = 0.4011): 1109.7 ± 8.5 kg/m3 | mass density (328.15 K, x1 = 0.5): 1086 ± 8.5 kg/m3 | mass density (328.15 K, x1 = 0.5632): 1071.9 ± 8.5 kg/m3 | mass density (328.15 K, x1 = 0.625): 1059.1 ± 8.5 kg/m3 | mass density (328.15 K, x1 = 0.75): 1035.3 ± 8.5 kg/m3 | mass density (328.15 K, x1 = 0.8333): 1021.1 ± 8.5 kg/m3 | mass density (328.15 K, x1 = 1): 994.2 ± 8.2 kg/m3
